Measured values reported in patent publication US7691601B2, “Medium for detecting and/or identifying of microorganisms” (priority 2003, dated 2010).

Assays:
[1] = system: free esterases in a stool sample; assay: Coloration at the point of deposit of the stool on Salmonella detection medium (Magenta C8); format: biochemical; set-up: key to Deposit coloration: 0=no coloration; 0.5=trace of coloration; 1=weak coloration; 2=strong coloration; conditions: for Deposit coloration: Table 2
Experimental: (§1) Preparation of the detection medium: A volume of 250 ml of detection medium is prepared from a powdered medium having the following composition:
(§2) Melting is carried out at 100° C., and the medium is autoclaved at 121° C. for 15 minutes. The additives are then added to the medium: Magenta C8 (500 mg/l; B-7102, BIOSYNTH, Staad, Switzerland); X-glucoside (75 mg/l; B-7250, BIOSYNTH, Staad, Switzerland); cefsulodine (10 mg/l; C 4786, Sigma, St Quentin Fallavier, France) and various concentrations of the inhibitor O,O-diethyl p-nitrophenyl phosphate (Paraoxon® ethyl; CAS No. 311-45-5; 36186, Riedel-de Haën, St Quentin Fallavier, France; 0; 1; 5 or 10 mg/l).
(§3) The various detection media thus obtained are then poured into Petri dishes.
(§4) Seeding of Salmonella bacteria: 10 μl of stools are deposited onto a Petri dish, this stool suspension is mixed or not mixed with 10 μl of a suspension of Salmonella (0.5 McF) and isolated as 3 dials on a Petri dish. Various […] and various Salmonella strains originating from the applicant's collection are used according to this protocol. The Petri dishes are incubated at 37° C. for 24 hours. The appearance of a coloration at the point of deposit of the stool (“deposit” column) and at the Salmonella colony (“colony” column) is read according to a semi-quantitative scale: • 0=no coloration • 0.5=trace of coloration • 1=weak coloration • 2=strong coloration The results obtained are given in Table 1.
(§5) Melting is carried out at 100° C., and the medium is autoclaved at 121° C. for 15 minutes. The additives are then added to the medium: Magenta C8 (500 mg/l; B-7102, BIOSYNTH, Staad, Switzerland); X-glucoside (75 mg/l; B-7250, BIOSYNTH, Staad, Switzerland); cefsulodine (10 mg/l; C 4786, Sigma, St Quentin Fallavier, France) and various concentrations of the inhibitor O,O-dimethyl p-nitrophenyl phosphate (Paraoxon® methyl; CAS No. 950-35-6; Riedel-de Haën, St Quentin Fallavier, France; 5, 10, 25 mg/l).
(§6) Seeding of Salmonella bacteria: The Petri dishes are inoculated, incubated and read as in Example 1.
(§7) Preparation of the detection medium: 250 ml of the medium of Example 1, in which the O,O-diethyl p-nitrophenyl phosphate is replaced with various concentrations of O,O-di-(2-chloroethyl)-O-(3-chloro-4-methylcoumarin-7-yl)phosphate (Haloxon®; CAS No. 321-55-1; R276995, Sigma, St Quentin Fallavier, France; 0; 1; 10; 100 or 1000 mg/l), are prepared according to the method of Example 1.
(§8) The various selection media thus obtained are then poured into Petri dishes.

[2] = system: Salmonella Enteritidis; assay: Coloration of Salmonella Enteritidis colonies on detection medium; format: cell-based; set-up: key: 0=no coloration; 0.5=trace of coloration; 1=weak coloration; 2=strong coloration
Experimental: as §1, §2, §3, §4, §5, §6, §7, §8

[3] = system: Candida albicans; assay: Coloration of Candida albicans colonies on detection medium; format: cell-based; set-up: key: 0=absence of coloration; 0.5=trace coloration; 1=weak coloration; 2=strong coloration; conditions: Table 4, 25 mg/l, stool B
Experimental: as §1
(§9) Melting is carried out at 100° C., and the medium is autoclaved at 121° C. for 15 minutes. The additives are then added to the medium: Magenta C8 (500 mg/l; B-7102, BIOSYNTH, Staad, Switzerland); X-glucoside (75 mg/l; B-7250, BIOSYNTH, Staad, Switzerland); cefsulodine (10 mg/l; C 4786, Sigma, St Quentin Fallavier, France), and also the esterase inhibitor: • ? O,O-diethyl p-nitrophenyl phosphate: 5 mg/l • ? O,O-dimethyl p-nitrophenyl phosphate: 25 mg/l or • ? O,O-di-(2-chloroethyl)-O-(3-chloro-4-methylcoumarin-7-yl)phosphate: 75 mg/l
as §8
(§10) Seeding of yeast of the Candida genus: 10 μl of stools are deposited onto a Petri dish, and this stool suspension is mixed or not mixed with 10 μl of a suspension of Candida and isolated as 3 dials on a Petri dish. Various stools and various strains of Candida genus originating from the applicant's collection are used according to this protocol. The Petri dishes are incubated at 37° C. for 24 hours.
(§11) The appearance of a coloration at the point of deposit of the stool and in the Candida colonies is read according to a semi-quantitative scale: • 0=absence of coloration • 0.5=trace coloration • 1=weak coloration • 2=strong coloration.

[4] = system: Salmonella Typhi; assay: Coloration of Salmonella Typhi colonies on detection medium; format: cell-based; set-up: key: 0=no coloration; 0.5=trace of coloration; 1=weak coloration; 2=strong coloration
Experimental: as §1, §2, §3, §4, §5, §6, §7, §8

[5] = system: free esterases in stools; assay: Coloration at the point of deposit of the stool on Candida detection medium; format: biochemical; conditions: summary in words
Experimental: as §1, §9, §8, §10, §11

[6] = Colonies column read for stool without added strain, Salmonella detection medium; set-up: key: 0=no coloration; 0.5=trace of coloration; 1=weak coloration; 2=strong coloration; conditions: Table 2, no strain
Experimental: as §1, §2, §3, §4, §5, §6, §7, §8

[7] = system: Candida krusei; assay: Coloration of Candida krusei colonies on detection medium; format: cell-based; set-up: key: 0=absence of coloration; 0.5=trace coloration; 1=weak coloration; 2=strong coloration; conditions: Table 4, 25 mg/l
Experimental: as §1, §9, §8, §10, §11

`COP(=O)(OC)Oc1ccc([N+](=O)[O-])cc1` [O,O-dimethyl p-nitrophenyl phosphate] showed a Deposit coloration ([1]; 5 mg/l, stool C, Salmonella Enteritidis) of 1, a Deposit coloration ([1]; 5 mg/l, stool C, Salmonella Typhi) of 1 and a Deposit coloration ([1]; 5 mg/l, stool C, no strain) of 1. It also gave a Deposit coloration ([1]; 5 mg/l, stool D, Salmonella Enteritidis) of 1, a Deposit coloration ([1]; 5 mg/l, stool D, Salmonella Typhi) of 1 and a Deposit coloration ([1]; 5 mg/l, stool D, no strain) of 1. For the same compound, the Deposit coloration ([1]; 10 mg/l, stool C, Salmonella Enteritidis) was 0.5, the Deposit coloration ([1]; 10 mg/l, stool C, Salmonella Typhi) was 0.5 and the Deposit coloration ([1]; 10 mg/l, stool C, no strain) was 0.5. For the same compound, the Deposit coloration ([1]; 10 mg/l, stool D, Salmonella Enteritidis) was 1, the Deposit coloration ([1]; 10 mg/l, stool D, Salmonella Typhi) was 1 and the Deposit coloration ([1]; 10 mg/l, stool D, no strain) was 1. It also gave a Deposit coloration ([1]; 25 mg/l, stool C, Salmonella Enteritidis) of 0, a Deposit coloration ([1]; 25 mg/l, stool C, Salmonella Typhi) of 0 and a Deposit coloration ([1]; 25 mg/l, stool C, no strain) of 0. The Deposit coloration ([1]; 25 mg/l, stool D, Salmonella Enteritidis) was 0, the Deposit coloration ([1]; 25 mg/l, stool D, Salmonella Typhi) was 0 and the Deposit coloration ([1]; 25 mg/l, stool D, no strain) was 0. The “Aspecific enzymatic reactions due to the presence of free enzymes” value ([1]; stools, Salmonella detection medium, summary in words) was “greatly inhibited”, the Colonies coloration ([2]; Table 2, 5 mg/l, stool C) was 2 and the Colonies coloration ([2]; Table 2, 5 mg/l, stool D) was 2. For the same compound, the Colonies coloration ([2]; Table 2, 10 mg/l, stool C) was 2, the Colonies coloration ([2]; Table 2, 10 mg/l, stool D) was 2 and the Colonies coloration ([2]; Table 2, 25 mg/l, stool C) was 2. It also gave a Colonies coloration ([2]; Table 2, 25 mg/l, stool D) of 2, a Colonies coloration [3] of 0.5 and a Colonies coloration ([4]; Table 2, 5 mg/l, stool C) of 0.5. It also gave a Colonies coloration ([4]; Table 2, 5 mg/l, stool D) of 0.5, a Colonies coloration ([4]; Table 2, 10 mg/l, stool C) of 1 and a Colonies coloration ([4]; Table 2, 10 mg/l, stool D) of 0.5. For the same compound, the Colonies coloration ([4]; Table 2, 25 mg/l, stool C) was 0.5, the Colonies coloration ([4]; Table 2, 25 mg/l, stool D) was 0.5 and the “Aspecific enzymatic reactions due to the presence of free enzymes” value [5] was “greatly inhibited”. For the same compound, the Colonies coloration ([6]; 5 mg/l, stool C) was 0, the Colonies coloration ([6]; 5 mg/l, stool D) was 0 and the Colonies coloration ([6]; 10 mg/l, stool C) was 0. It also gave a Colonies coloration ([6]; 10 mg/l, stool D) of 0, a Colonies coloration ([6]; 25 mg/l, stool C) of 0 and a Colonies coloration ([6]; 25 mg/l, stool D) of 0. The Colonies coloration ([7]; stool A) was 0.5 and the Colonies coloration ([7]; stool B) was 0.5.
